Laboratory results published in patent US20230159453A1 (COCRYSTAL PHARMA, INC., priority 2020, published 2023).

What follows are compounds tested against SARS2 protease (Severe acute respiratory syndrome coronavirus 2, UniProt P0DTD1) (assay: SARS-CoV-2 protease inhibition assay (SARS2 FRET protease assay)). Conditions: SARS-CoV-2 protease 25 nM, FRET, peptide substrate 1.3 μM, 30 minutes at 30° C., compounds 20 μM to 1.0 nM; read-out: IC50.
Type: biochemical

With CC1(C)CC(C[C@@H](C=O)NC(=O)[C@H](CC2CCCCC2)NC(=O)OC2CCCC2Cc2cccc(Cl)c2)C(=O)N1 (stereo partly drawn) [Compound C156, 2-(3-Chlorobenzyl)cyclopentyl ((2S)-3-cyclohexyl-1-((1-(5,5-dimethyl-2-oxopyrrolidin-3-yl)-3-oxopropan-2-yl)amino)-1-oxopropan-2-yl)carbamate] as the compound, how does the IC50 read?
Its IC50 is 52.8 nM.

For CCCC[C@H](NC(=O)OC(c1ccccc1)C(C)(C)c1cccc(Cl)c1)C(=O)N[C@H](C=O)C[C@@H]1CCNC1=O (stereo partly drawn) [Compound C157, 2-(3-Chlorophenyl)-2-methyl-1-phenylpropyl ((S)-1-oxo-1-(((S)-1-oxo-3-((S)-2-oxopyrrolidin-3-yl)propan-2-yl)amino)hexan-2-yl) carbamate], which IC50 is on record?
The IC50 was 0.1 nM.

For O=C(N[C@@H](CC1CCCCC1)C(=O)N[C@@H](C[C@@H]1CCNC1=O)C(=O)C(=O)NC1CC1)OC(Cc1cccc(Cl)c1)c1ccccc1 (some centres unmarked) [Compound C158], which IC50 is on record?
The IC50 was 2610 nM.

For O=C(N[C@@H](CC1CCCCC1)C(=O)N[C@@H](C[C@@H]1CC2(CCCC2)NC1=O)C(=O)C(=O)NC1CC1)OC1CCCC1Cc1cccc(Cl)c1 (stereo partly drawn) [Compound C159, 2-(3-Chlorobenzyl)cyclopentyl ((2S)-3-cyclohexyl-1-((4-(cyclopropylamino)-3,4-dioxo-1-(2-oxo-1-azaspiro[4.4]nonan-3-yl)butan-2-yl)amino)-1-oxopropan-2-yl)carbamate], which IC50 is on record?
The IC50 was 3490 nM.

Which IC50 does the source give for CC(C)(c1cccc(Cl)c1)C(OC(=O)N[C@@H](CC1CCCCC1)C(=O)N[C@H](C=O)C[C@@H]1CCNC1=O)c1ccccc1Cl (stereo partly drawn) [Compound C160, 1-(2-chlorophenyl)-2-(3-chlorophenyl)-2-methylpropyl ((S)-3-cyclohexyl-1-oxo-1-(((S)-1-oxo-3-((S)-2-oxopyrrolidin-3-yl)propan-2-yl)amino)propan-2-yl) carbamate] here?
The IC50 was 24.7 nM.

For CC1(C)CC(C[C@@H](C=O)NC(=O)[C@H](CC2CCCCC2)NC(=O)OC(Cc2cccc(Cl)c2)c2cccc(Cl)c2)C(=O)N1 (stereo partly drawn) [Compound C162, 1,2-Bis(3-Chlorophenyl)ethyl ((2S)-3-cyclohexyl-1-((1-(5,5-dimethyl-2-oxopyrrolidin-3-yl)-3-oxopropan-2-yl)amino)-1-oxopropan-2-yl)carbamate], which IC50 is on record?
Its IC50 is 92.2 nM.

With CC(C)C[C@H](NC(=O)OC(c1ccccc1)C(C)(C)c1cccc(Cl)c1)C(=O)N[C@@H](CC1CC(C)(C)NC1=O)C(=O)C(=O)NC1CC1 (stereo partly drawn) [Compound C163, 2-(3-Chlorophenyl)-2-methyl-1-phenylpropyl ((2S)-1-((4-(cyclopropylamino)-1-(5,5-dimethyl-2-oxopyrrolidin-3-yl)-3,4-dioxobutan-2-yl)amino)-4-methyl-1-oxopentan-2-yl) carbamate] as the compound, how does the IC50 read?
The IC50 was 1810 nM.

With CCCC[C@H](NC(=O)OC(c1ccccc1)C(C)(C)c1cccc(Cl)c1)C(=O)N[C@@H](CC1CCNC1=O)C(=O)C(N)=O (stereo partly drawn) [Compound C164, 2-(3-Chlorophenyl)-2-methyl-1-phenylpropyl ((S)-1-(((S)-4-amino-3,4-dioxo-1-((S)-2-oxopyrrolidin-3-yl)butan-2-yl)amino)-1-oxohexan-2-yl) carbamate] as the compound, how does the IC50 read?
Its IC50 is 144 nM.

With O=C[C@H](CC1CC2(CCCC2)NC1=O)NC(=O)[C@H](CC1CCCCC1)NC(=O)OC1CCCC1Cc1cccc(Cl)c1 (stereo partly drawn) [Compound C165, 2-(3-chlorobenzyl)cyclopentyl ((2S)-3-cyclohexyl-1-oxo-1-((1-oxo-3-(2-oxo-1-azaspiro[4.4]nonan-3-yl)propan-2-yl)amino)propan-2-yl)carbamate] as the compound, how does the IC50 read?
Its IC50 is 106 nM.

How did the IC50 turn out when CC(C)C[C@H](NC(=O)OC(c1ccccc1)C(C)(C)c1cccc(Cl)c1)C(=O)N[C@@H](C[C@@H]1CCNC1=O)C(=O)C(=O)NC1CC1 (stereo partly drawn) [Compound C166, 2-(3-Chlorophenyl)-2-methyl-1-phenylpropyl ((S)-1-(((S)-4-(cyclopropylamino)-3,4-dioxo-1-((S)-2-oxopyrrolidin-3-yl)butan-2-yl)amino)-4-methyl-1-oxopentan-2-yl)carbamate] was run?
Its IC50 is 14 nM.

Which IC50 does the source give for CC1(C)CC(C[C@H](NC(=O)[C@H](CC2CCCCC2)NC(=O)OC2CCCC2Cc2cccc(Cl)c2)C(=O)C(=O)NC2CC2)C(=O)N1 (stereo partly drawn) [Compound C167, 2-(3-Chlorobenzyl)cyclopentyl ((2S)-3-cyclohexyl-1-((4-(cyclopropylamino)-1-(5,5-dimethyl-2-oxopyrrolidin-3-yl)-3,4-dioxobutan-2-yl)amino)-1-oxopropan-2-yl)carbamate] here?
The IC50 was 2050 nM.

O=C(N[C@@H](CC1CCCCC1)C(=O)N[C@@H](CC1CC2(CCCCC2)NC1=O)C(=O)CO)OCc1cccc(Cl)c1 (stereo partly drawn) [Compound C168, 3-Chlorobenzyl ((2S)-3-cyclohexyl-1-(((2S)-4-hydroxy-3-oxo-1-(2-oxo-1-azaspiro[4.5]decan-3-yl)butan-2-yl)amino)-1-oxopropan-2-yl)carbamate] was tested. Which IC50 did it give?
Its IC50 is 5440 nM.

Which IC50 does the source give for CC(C)C[C@H](NC(=O)OC1(Cc2cccc(Cl)c2)CCC1)C(=O)N[C@@H](CC1CC2(CCOCC2)NC1=O)C(=O)C(=O)NC1CC1 (stereo partly drawn) [Compound C169, 1-(3-chlorobenzyl)cyclobutyl ((2S)-1-((4-(cyclopropylamino)-3,4-dioxo-1-(2-oxo-8-oxa-1-azaspiro[4.5]decan-3-yl)butan-2-yl)amino)-4-methyl-1-oxopentan-2-yl)carbamate] here?
Its IC50 is 5990 nM.

For CS(=O)(=O)N1CCC2(CC1)CC(C[C@H](NC(=O)[C@H](CC1CCCCC1)NC(=O)OCc1cccc(Cl)c1)C(=O)C(=O)NC1CC1)C(=O)N2 (stereo partly drawn) [Compound C170, 3-Chlorobenzyl ((2S)-3-cyclohexyl-1-(((2S)-4-(cyclopropylamino)-1-(8-(methylsulfonyl)-2-oxo-1,8-diazaspiro[4.5]decan-3-yl)-3,4-dioxobutan-2-yl)amino)-1-oxopropan-2-yl)carbamate], which IC50 is on record?
Its IC50 is 1840 nM.

With O=C(N[C@@H](CC1CCCCC1)C(=O)N[C@@H](CC1CC2(CCCCC2)NC1=O)C(=O)C(=O)N1CCCC1)c1cc2ccccc2[nH]1 (stereo partly drawn) [Compound C171, N-((2S)-3-cyclohexyl-1-((3,4-dioxo-1-(2-oxo-1-azaspiro[4.5]decan-3-yl)-4-(pyrrolidin-1-yl)butan-2-yl)amino)-1-oxopropan-2-yl)-1H-indole-2-carboxamide] as the compound, how does the IC50 read?
Its IC50 is 11000 nM.

For CC1(C)CC(C[C@H](NC(=O)[C@H](CC2CCCCC2)NC(=O)OC(Cc2cccc(Cl)c2)c2cccc(Cl)c2)C(=O)C(=O)NC2CC2)C(=O)N1 (stereo partly drawn) [Compound C172, 1,2-Bis (3-Chlorophenyl) ethyl ((2S)-3-cyclohexyl-1-((4-(cyclopropylamino)-1-(5,5-dimethyl-2-oxopyrrolidin-3-yl)-3,4-dioxobutan-2-yl)amino)-1-oxopropan-2-yl)carbamate], which IC50 is on record?
Its IC50 is 1670 nM.

Which IC50 does the source give for O=C(N[C@@H](CC1CCCCC1)C(=O)N[C@@H](C[C@@H]1CCNC1=O)C(=O)C(=O)NC1CC1)OCc1cccc(Cl)c1 [Compound C173] here?
The IC50 was 1430 nM.

How did the IC50 turn out when CCCC[C@H](NC(=O)OC(c1ccccc1)C(C)(C)c1cccc(Cl)c1)C(=O)N[C@@H](CC1CCNC1=O)C(=O)C(=O)NC1CC1 (stereo partly drawn) [Compound C174, 2-(3-Chlorophenyl)-2-methyl-1-phenylpropyl ((S)-1-(((S)-4-(cyclopropylamino)-3,4-dioxo-1-((S)-2-oxopyrrolidin-3-yl)butan-2-yl)amino)-1-oxohexan-2-yl) carbamate] was run?
Its IC50 is 8.2 nM.

For O=C(N[C@@H](CC1CCCCC1)C(=O)NC(CC1CC2(CCOCC2)NC1=O)C(=O)C(=O)NC1CC1)OCc1cccc(Cl)c1 (stereo partly drawn) [Compound C176, 3-Chlorobenzyl ((2S)-3-cyclohexyl-1-((4-(cyclopropylamino)-3,4-dioxo-1-(2-oxo-8-oxa-1-azaspiro[4.5]decan-3-yl)butan-2-yl)amino)-1-oxopropan-2-yl)carbamate], which IC50 is on record?
The IC50 was 1570 nM.

With CS(=O)(=O)N1CCC2(CC1)CC(CC(NC(=O)[C@H](CC1CCCCC1)NC(=O)OC1CCCC1Cc1cccc(Cl)c1)C(=O)C(=O)NC1CC1)C(=O)N2 (stereo partly drawn) [Compound C177, 2-(3-chlorobenzyl)cyclopentyl ((2S)-3-cyclohexyl-1-((4-(cyclopropylamino)-1-(8-(methylsulfonyl)-2-oxo-1,8-diazaspiro[4.5]decan-3-yl)-3,4-dioxobutan-2-yl)amino)-1-oxopropan-2-yl)carbamate] as the compound, how does the IC50 read?
Its IC50 is 4390 nM.

With CS(=O)(=O)N1CCC2(CC1)CC(C[C@@H](C=O)NC(=O)[C@H](CC1CCCCC1)NC(=O)OCc1cccc(Cl)c1)C(=O)N2 (stereo partly drawn) [Compound C178, 3-Chlorobenzyl ((2S)-3-cyclohexyl-1-(((2S)-1-(8-(methylsulfonyl)-2-oxo-1,8-diazaspiro[4.5]decan-3-yl)-3-oxopropan-2-yl)amino)-1-oxopropan-2-yl)carbamate] as the compound, how does the IC50 read?
The IC50 was 71 nM.

How did the IC50 turn out when COc1cccc2[nH]c(C(=O)N[C@@H](CC3CCCCC3)C(=O)NC(C=O)CC3CC4(CCOCC4)NC3=O)cc12 (stereo partly drawn) [Compound C179, N-((2S)-3-cyclohexyl-1-oxo-1-((1-oxo-3-(2-oxo-8-oxa-1-azaspiro[4.5]decan-3-yl)propan-2-yl)amino)propan-2-yl)-4-methoxy-1H-indole-2-carboxamide] was run?
Its IC50 is 0.015 nM.

CC1(C)CC(CC(C=O)NC(=O)[C@H](CC2CCCCC2)NC(=O)OC(Cc2cccc(Cl)c2)c2ccccc2)C(=O)N1 (stereo partly drawn) [Compound C180, 2-(3-Chlorophenyl)-1-phenylethyl ((2S)-3-cyclohexyl-1-((1-(5,5-dimethyl-2-oxopyrrolidin-3-yl)-3-oxopropan-2-yl)amino)-1-oxopropan-2-yl) carbamate] was tested. Which IC50 did it give?
The IC50 was 56.6 nM.

For CC(C)(c1cccc(Cl)c1)[C@@H](OC(=O)N[C@@H](CC1CCCCC1)C(=O)N[C@@H](C[C@@H]1CCNC1=O)C(=O)C(N)=O)c1cccc(F)c1 [Compound C182], which IC50 is on record?
The IC50 was 2470 nM.

CC(C)(c1cccc(Cl)c1)[C@H](OC(=O)N[C@@H](CC1CCCCC1)C(=O)N[C@@H](C[C@@H]1CCNC1=O)C(=O)C(N)=O)c1cccc(F)c1 [Compound C183] was tested. Which IC50 did it give?
The IC50 was 249 nM.

Which IC50 does the source give for CC(C)(c1cccc(Cl)c1)[C@@H](OC(=O)N[C@@H](CC1CCCCC1)C(=O)N[C@@H](C[C@@H]1CCNC1=O)C(=O)C(=O)NC1CC1)c1cccc(F)c1 [Compound C184, (S)-2-(3-chlorophenyl)-1-(3-fluorophenyl)-2-methylpropyl ((S)-3-cyclohexyl-1-(((S)-4-(cyclopropylamino)-3,4-dioxo-1-((S)-2-oxopyrrolidin-3-yl)butan-2-yl)amino)-1-oxopropan-2-yl)carbamate] here?
The IC50 was 2320 nM.
